Measurements published in patent US5281603A, “Angiotensin II receptor blocking 2,3,6 substituted quinazolinones” (American Cyanamid Company, priority 1993, dated 1994).
Values joined by “and” are separate entries in the source; they are usually repeats but may differ in a detail not shown here. Equal values may be shown once.

System: Angiotensin II vasopressor response
Assay: AII challenge: antagonism of angiotensin II vasopressor response in conscious spontaneously hypertensive rats
Type: in vivo, rat (Male Okamoto-Aoki SHR)
Settings: 10 mg/kg I.V.; for % Inhibition / Average Change: SHR n=2; for Response After AII / Change / Control Before AII: individual SHR
Source text: By administering a compound of this invention to a rat, and then challenging with angiotensin II, a blockage of the vasopressor response is realized.
Conscious Male Okamoto-Aoki SHR, 16-20 weeks old, weighing approximately 330 g are purchased from Charles River Labs (Wilmington, Mass.). Conscious rats are restrained in a supine position with elastic tape. The area at the base of the tail is locally anesthetized by subcutaneous infiltration with 2% procaine. The ventral caudal artery and vein are isolated, and a cannula made of polyethylene (PE) 10-20 tubing (fused together by heat) is passed into the lower abdominal aorta and vena cava, respectively. The cannula is secured, heparinized (1,000 I.U./ml), sealed and the wound is closed. The animals are placed in plastic restraining cages in an upright position. The cannula is attached to a Statham P23Db pressure transducer, and pulsatile blood pressure is recorded to 10-15 minutes with a Gould Brush recorder. (Chan et al., (Drug Development Res., 18:75-94, 1989).
Angiotensin II (human sequence, Sigma Chem. Co., St. […] Then a test compound, vehicle or a known angiotensin II antagonist is administered i.v., i.p. or orally to each set of rats. The two doses of angiotensin II are given to each rat again at 30, 60, 90, 120, 180, 240 and 300 minutes post dosing the compound or vehicle. The vasopressor response of angiotensin II is measured for the increase in systolic blood pressure in mmHg. The percentage of antagonism or blockade of the vasopressor response of angiotensin II by a compound is calculated using the vasopressor response (increase in systolic blood pressure) of angiotensin II of each rat predosing the compound as 100%. A compound is considered active if at 30 mg/kg i.v. it antagonized at least 50% of the response.

[1] = AII 0.05 mcg/kg IV, 30 min post dose
[2] = AII 0.05 mcg/kg IV, 60 min post dose
[3] = AII 0.05 mcg/kg IV, 90 min post dose
[4] = AII 0.05 mcg/kg IV, 120 min post dose
[5] = AII 0.05 mcg/kg IV, 180 min post dose
[6] = AII 0.05 mcg/kg IV, 240 min post dose
[7] = AII 0.05 mcg/kg IV, 300 min post dose
[8] = AII 0.1 mcg/kg IV, 30 min post dose
[9] = AII 0.1 mcg/kg IV, 60 min post dose
[10] = AII 0.1 mcg/kg IV, 90 min post dose
[11] = AII 0.1 mcg/kg IV, 120 min post dose
[12] = AII 0.1 mcg/kg IV, 180 min post dose
[13] = AII 0.1 mcg/kg IV, 240 min post dose
[14] = AII 0.1 mcg/kg IV, 300 min post dose
[15] = AII 0.05 mcg/kg IV, 30 min post dose, 10 mg/kg
[16] = AII 0.05 mcg/kg IV, 60 min post dose, 10 mg/kg
[17] = AII 0.05 mcg/kg IV, 90 min post dose, 10 mg/kg
[18] = AII 0.05 mcg/kg IV, 120 min post dose, 10 mg/kg
[19] = AII 0.05 mcg/kg IV, 180 min post dose, 10 mg/kg
[20] = AII 0.05 mcg/kg IV, 240 min post dose, 10 mg/kg
[21] = AII 0.05 mcg/kg IV, 300 min post dose, 10 mg/kg
[22] = AII 0.1 mcg/kg IV, 30 min post dose, 10 mg/kg
[23] = AII 0.1 mcg/kg IV, 60 min post dose, 10 mg/kg
[24] = AII 0.1 mcg/kg IV, 90 min post dose, 10 mg/kg
[25] = AII 0.1 mcg/kg IV, 120 min post dose, 10 mg/kg
[26] = AII 0.1 mcg/kg IV, 180 min post dose, 10 mg/kg
[27] = AII 0.1 mcg/kg IV, 240 min post dose, 10 mg/kg
[28] = AII 0.1 mcg/kg IV, 300 min post dose, 10 mg/kg

SMILES: CCCCc1nc2ccc(C3=NN[C@H]4C(=O)N(C)C(=O)[C@@H]34)cc2c(=O)n1Cc1ccc(-c2ccccc2-c2nnn[nH]2)cc1 (relative stereo) [Example 7]
- % Inhibition [1]: 57%
- Average Change [1]: 20 mmHg
- % Inhibition [2]: 57%
- Average Change [2]: 20 mmHg
- % Inhibition [3]: 57%
- Average Change [3]: 20 mmHg
- % Inhibition [4]: 62%
- Average Change [4]: 17.5 mmHg
- % Inhibition [5]: 67%
- Average Change [5]: 15 mmHg
- % Inhibition [6]: 62%
- Average Change [6]: 17.5 mmHg
- % Inhibition [7]: 24%
- Average Change [7]: 35 mmHg
- % Inhibition [8]: 50%
- Average Change [8]: 27.5 mmHg
- % Inhibition [9]: 58%
- Average Change [9]: 23 mmHg
- % Inhibition [10]: 59%
- Average Change [10]: 22.5 mmHg
- % Inhibition [11]: 67%
- Average Change [11]: 18 mmHg
- % Inhibition [12]: 50%
- Average Change [12]: 27.5 mmHg
- % Inhibition [13]: 55%
- Average Change [13]: 25 mmHg
- % Inhibition [14]: 54%
- Average Change [14]: 25.5 mmHg
- Response After AII [1]: 240 mmHg
- Change [15]: 15 mmHg and 25 mmHg
- Control Before AII [15]: 150 mmHg and 215 mmHg
- Response After AII [15]: 165 mmHg
- Change [16]: 15 mmHg and 25 mmHg
- Control Before AII [16]: 145 mmHg and 215 mmHg
- Response After AII [16]: 160 mmHg and 240 mmHg
- Response After AII [3]: 230 mmHg
- Change [17]: 40 mmHg and 0 mmHg
- Control Before AII [17]: 135 mmHg and 230 mmHg
- Response After AII [17]: 175 mmHg
- Response After AII [4]: 160 mmHg
- Change [18]: 20 mmHg and 15 mmHg
- Control Before AII [18]: 140 mmHg and 200 mmHg
- Response After AII [18]: 215 mmHg
- Change [19]: 25 mmHg and 5 mmHg
- Control Before AII [19]: 140 mmHg and 205 mmHg
- Response After AII [19]: 165 mmHg and 210 mmHg
- Change [20]: 25 mmHg and 10 mmHg
- Control Before AII [20]: 135 mmHg and 190 mmHg
- Response After AII [20]: 160 mmHg and 200 mmHg
- Change [7]: 35 mmHg
- Control Before AII [21]: 140 mmHg and 190 mmHg
- Response After AII [21]: 175 mmHg and 225 mmHg
- Change [22]: 20 mmHg and 35 mmHg
- Control Before AII [22]: 140 mmHg and 215 mmHg
- Response After AII [22]: 160 mmHg and 250 mmHg
- Change [23]: 15 mmHg and 31 mmHg
- Control Before AII [23]: 145 mmHg and 224 mmHg
- Response After AII [23]: 160 mmHg and 255 mmHg
- Change [24]: 25 mmHg and 20 mmHg
- Control Before AII [24]: 140 mmHg and 215 mmHg
- Response After AII [24]: 165 mmHg and 235 mmHg
- Response After AII [11]: 160 mmHg
- Change [25]: 25 mmHg and 11 mmHg
- Control Before AII [25]: 135 mmHg and 214 mmHg
- Response After AII [25]: 225 mmHg
- Change [26]: 35 mmHg and 20 mmHg
- Control Before AII [26]: 140 mmHg and 195 mmHg
- Response After AII [26]: 175 mmHg and 215 mmHg
- Change [27]: 35 mmHg and 15 mmHg
- Control Before AII [27]: 140 mmHg and 190 mmHg
- Response After AII [27]: 175 mmHg and 205 mmHg
- Change [28]: 40 mmHg and 11 mmHg
- Control Before AII [28]: 140 mmHg and 205 mmHg
- Response After AII [28]: 180 mmHg and 216 mmHg
